Literature values in patent US20050107349A1, “Method for the treatment or prevention of respiratory disorders with a cyclooxygenase-2 inhibitor in combination with a muscarinic receptor antagonist and compositions therewith” (Pharmacia Corporation, priority 2003, published 2005).

Key:
[1] = system: subjects suffering from asthma

## C[N+]1(C)[C@@H]2C[C@@H](OC(=O)C(O)(c3cccs3)c3cccs3)C[C@H]1[C@@H]1O[C@@H]12 [tiotropium, (1α, 2β, 4β, 5α, 7β)-7-[(hydroxy-2-thienylacetyl)oxy]-9,9-dimethyl-3-oxa-9-azoniatricyclo [3.3.1.0^2,4]nonane bromide monohydrate]
[1]
  bronchodilation: prolonged bronchodilation
Patients with COPD
  dose-dependent and prolonged bronchodilator effect (duration): ≤ 48 h
